Measurements from ChEMBL document CHEMBL1201862, “PubChem BioAssay data set” (2004).
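Compound exposure: 48 hours, 5 concentrations, 96-well plates. Abbreviation: GI50, concentration required for 50% inhibition of growth.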 Active and inactive are the calls of the source. Cut-off read from the data, not from the text of the source: active = GI50 up to about 1.1 µM and inactive = higher.

Assays:
Assay in all cases: growth of human tumour cells (NCI), 48 h
EKVX = tested on: EKVX
HCT-116 = tested on: HCT-116
SNB-78 = tested on: SNB-78
UACC-62 = tested on: UACC-62
SW-620 = tested on: SW-620
NCI-H522 = tested on: NCI-H522
LXFL 529 = tested on: LXFL 529
SNB-75 = tested on: SNB-75
SN12C = tested on: SN12C
TK-10 = tested on: TK-10
SK-MEL-2 = tested on: SK-MEL-2
XF498 = tested on: XF498
SK-MEL-28 = tested on: SK-MEL-28
NCI-H23 = tested on: NCI-H23
DMS-114 = tested on: DMS-114
OVCAR-4 = tested on: OVCAR-4
HT-29 = tested on: HT-29
SF-295 = tested on: SF-295
ACHN = tested on: ACHN
OVCAR-5 = tested on: OVCAR-5
SF-539 = tested on: SF-539
SNB-19 = tested on: SNB-19
UACC-257 = tested on: UACC-257
SK-MEL-5 = tested on: SK-MEL-5
OVCAR-3 = tested on: OVCAR-3
NCI-H460 = tested on: NCI-H460
HOP-62 = tested on: HOP-62
M14 = tested on: M14
K562 = tested on: K562
HCT-15 = tested on: HCT-15
LOX IMVI = tested on: LOX IMVI
RXF 393 = tested on: RXF 393
U-251 = tested on: U-251
786-0 = tested on: 786-0
A498 = tested on: A498
Malme-3M = tested on: Malme-3M
SF-268 = tested on: SF-268
CCRF-CEM = tested on: CCRF-CEM
SK-OV-3 = tested on: SK-OV-3
MOLT-4 = tested on: MOLT-4
M19-MEL = tested on: M19-MEL
NCI-H226 = tested on: NCI-H226
A549 = tested on: A549
KM-20L2 = tested on: KM-20L2
DLD-1 = tested on: DLD-1
RPMI-8226 = tested on: RPMI-8226
OVCAR-8 = tested on: OVCAR-8
IGROV-1 = tested on: IGROV-1
COLO 205 = tested on: COLO 205
HOP-92 = tested on: HOP-92
RXF 631 = tested on: RXF 631
HOP-18 = tested on: HOP-18
UO-31 = tested on: UO-31
DMS-273 = tested on: DMS-273
HL-60 = tested on: HL-60
CAKI-1 = tested on: CAKI-1
SR = tested on: SR
KM12 = tested on: KM12
HCC 2998 = tested on: HCC 2998

Measured: GI50

Cc1cccc(C(=O)c2cccc3ccccc23)c1C(=O)O
> 100000 nM: HCT-15
inactive: EKVX > 100000 nM | HCT-116 > 100000 nM | SNB-78 > 100000 nM | UACC-62 > 100000 nM | SW-620 > 100000 nM | NCI-H522 > 100000 nM | LXFL 529 > 100000 nM | SNB-75 > 100000 nM | SN12C > 100000 nM | TK-10 > 100000 nM | SK-MEL-2 > 100000 nM | XF498 > 100000 nM | SK-MEL-28 > 100000 nM | NCI-H23 > 100000 nM | DMS-114 3240 nM | OVCAR-4 > 100000 nM | HT-29 > 100000 nM | SF-295 > 100000 nM | ACHN > 100000 nM | OVCAR-5 > 100000 nM | SF-539 > 100000 nM | SNB-19 > 100000 nM | UACC-257 > 100000 nM | SK-MEL-5 > 100000 nM | OVCAR-3 > 100000 nM | NCI-H460 > 100000 nM | HOP-62 > 100000 nM | M14 > 100000 nM | K562 > 100000 nM | LOX IMVI > 100000 nM | RXF 393 > 100000 nM | U-251 > 100000 nM | 786-0 > 100000 nM | A498 > 100000 nM | Malme-3M > 100000 nM | SF-268 > 100000 nM | CCRF-CEM > 100000 nM | SK-OV-3 39100 nM | MOLT-4 > 100000 nM | M19-MEL > 100000 nM | NCI-H226 > 100000 nM | A549 > 100000 nM | KM-20L2 > 100000 nM | DLD-1 > 100000 nM | RPMI-8226 > 100000 nM | OVCAR-8 > 100000 nM | IGROV-1 > 100000 nM | COLO 205 23300 nM | HOP-92 > 100000 nM | RXF 631 > 100000 nM | HOP-18 50900 nM | UO-31 > 100000 nM | DMS-273 > 100000 nM

CC(=O)O[C@H]1C(=O)[C@@]2(C)C([C@H](OC(=O)c3ccccc3)[C@]3(O)C[C@H](OC(=O)[C@H](O)[C@H](NC(=O)c4ccccc4)c4ccc(Cl)cc4)C(C)=C1C3(C)C)C1(OC(C)=O)CO[C@@H]1C[C@@H]2O (some centres not stated)
active: EKVX 769 nM | HCT-116 0.113 nM | SNB-78 71 nM | UACC-62 0.376 nM | SW-620 0.497 nM | NCI-H522 0.356 nM | LXFL 529 1.91 nM | SNB-75 < 0.1 nM | SN12C 0.841 nM | TK-10 22.6 nM | SK-MEL-2 5.94 nM | XF498 7.28 nM | SK-MEL-28 1.57 nM | NCI-H23 1.04 nM | DMS-114 < 0.1 nM | OVCAR-4 889 nM | HT-29 0.106 nM | SF-295 19.4 nM | HL-60 < 0.1 nM | ACHN 261 nM | CAKI-1 151 nM | OVCAR-5 2.94 nM | SF-539 0.367 nM | SNB-19 30.4 nM | UACC-257 4.25 nM | SK-MEL-5 0.736 nM | OVCAR-3 2.22 nM | NCI-H460 0.557 nM | HOP-62 8.39 nM | M14 2.24 nM | K562 0.807 nM | LOX IMVI < 0.1 nM | RXF 393 14.9 nM | SR 0.119 nM | U-251 1.82 nM | 786-0 7.11 nM | A498 25.6 nM | Malme-3M 2.39 nM | SF-268 1.56 nM | CCRF-CEM 1.88 nM | SK-OV-3 1.63 nM | MOLT-4 10 nM | M19-MEL 0.302 nM | NCI-H226 2.29 nM | A549 0.678 nM | KM-20L2 1.03 nM | DLD-1 2.33 nM | KM12 0.282 nM | HCC 2998 0.813 nM | RPMI-8226 0.157 nM | OVCAR-8 1.15 nM | IGROV-1 0.136 nM | COLO 205 1.88 nM | RXF 631 104 nM | HOP-18 79.4 nM | UO-31 733 nM | DMS-273 0.111 nM
516 nM: HCT-15
